Source: PMC8534050, “Discovery of a Potent and Highly Isoform-Selective Inhibitor of the Neglected Ribosomal Protein S6 Kinase Beta 2 (S6K2)” (Cancers, 2021)

How the values were obtained:
Test in all cases: DSF thermal shift assay
Type in all cases: binding
Conditions in all cases: inhibitor 10 μM, protein 2 μM
AAK1 = target: T1, AAK1 (Homo sapiens, UniProt Q2M2I8)
T1 construct: purchased in-house DSF (thermal shift) panel per Fedorov et al; IC50 follow-up at Reaction Biology Corp
Procedure: (§1) Differences in the melting temperature (ΔTm) were measured as described by Fedorov et al.. Purified proteins were buffered in 25 mM HEPES (pH 7.5), 500 mM NaCl and were assayed in a 384-well plate with a final protein concentration of 2 μM in 10 μL assay volume. Inhibitors were added to a final concentration of 10 μM using an ECHO 550 acoustic dispenser (Labcyte, San José, CA, USA). As a fluorescence probe, SYPRO-Orange (Molecular Probes, Eugene, OR, USA) was added in a 1:5000 dilution. […] Data were analyzed through Boltzmann equation in the Protein Thermal Shift software (Applied Biosystems, Waltham, MA, USA). Samples were measured in technical duplicates.

ABL1 = target: T2, ABL1 (Homo sapiens, UniProt P00519)
T2 construct: purchased in-house DSF (thermal shift) panel per Fedorov et al; IC50 follow-up at Reaction Biology Corp
Procedure: as §1

AKT3 = target: T3, AKT3 (Homo sapiens, UniProt Q9Y243)
T3 construct: purchased in-house DSF (thermal shift) panel per Fedorov et al
Procedure: as §1

BMPR2 = target: T4, BMPR2 (Homo sapiens, UniProt Q13873)
T4 construct: purchased in-house DSF (thermal shift) panel per Fedorov et al
Procedure: as §1

BMX = target: T5, BMX (Homo sapiens, UniProt P51813)
T5 construct: purchased in-house DSF (thermal shift) panel per Fedorov et al; IC50 follow-up at Reaction Biology Corp
Procedure: as §1

BRD4 = target: T6, BRD4 (Homo sapiens, UniProt O60885)
T6 construct: purchased in-house DSF (thermal shift) panel per Fedorov et al; IC50 follow-up at Reaction Biology Corp
Procedure: as §1

BRPF1 = target: T7, BRPF1 (Homo sapiens, UniProt P55201)
T7 construct: purchased in-house DSF (thermal shift) panel per Fedorov et al; IC50 follow-up at Reaction Biology Corp
Procedure: as §1

CAMK1D = target: T8, CAMK1D (Homo sapiens, UniProt Q8IU85)
T8 construct: purchased in-house DSF (thermal shift) panel per Fedorov et al; IC50 follow-up at Reaction Biology Corp
Procedure: as §1

CAMK1G = target: T9, CAMK1G (Homo sapiens, UniProt Q96NX5)
T9 construct: purchased in-house DSF (thermal shift) panel per Fedorov et al; IC50 follow-up at Reaction Biology Corp
Procedure: as §1

CAMK2B = target: T10, CAMK2B (Homo sapiens, UniProt Q13554)
T10 construct: purchased in-house DSF (thermal shift) panel per Fedorov et al; IC50 follow-up at Reaction Biology Corp
Procedure: as §1

CAMK2D = target: T11, CAMK2D (Homo sapiens, UniProt Q13557)
T11 construct: purchased in-house DSF (thermal shift) panel per Fedorov et al
Procedure: as §1

CASK = target: T12, CASK (Homo sapiens, UniProt O14936)
T12 construct: purchased in-house DSF (thermal shift) panel per Fedorov et al; IC50 follow-up at Reaction Biology Corp
Procedure: as §1

CDKL1 = target: T13, CDKL1 (Homo sapiens, UniProt Q00532)
T13 construct: purchased in-house DSF (thermal shift) panel per Fedorov et al; IC50 follow-up at Reaction Biology Corp
Procedure: as §1

CSNK1D = target: T14, CSNK1D (Homo sapiens, UniProt P48730)
T14 construct: purchased in-house DSF (thermal shift) panel per Fedorov et al
Procedure: as §1

DMPK1 = target: T15, DMPK1 (Homo sapiens, UniProt Q09013)
T15 construct: purchased in-house DSF (thermal shift) panel per Fedorov et al
Procedure: as §1

DYRK2 = target: T16, DYRK2 (Homo sapiens, UniProt Q92630)
T16 construct: purchased in-house DSF (thermal shift) panel per Fedorov et al
Procedure: as §1

EPHA2 = target: T17, EPHA2 (Homo sapiens, UniProt P29317)
T17 construct: purchased in-house DSF (thermal shift) panel per Fedorov et al
Procedure: as §1

FGFR2 = target: T18, FGFR2 (Homo sapiens, UniProt P21802)
T18 construct: purchased in-house DSF (thermal shift) panel per Fedorov et al
Procedure: as §1

FLT1 = target: T19, FLT1 (Homo sapiens, UniProt P17948)
T19 construct: purchased in-house DSF (thermal shift) panel per Fedorov et al
Procedure: as §1

GSK3B = target: T20, GSK3B (Homo sapiens, UniProt P49841)
T20 construct: purchased in-house DSF (thermal shift) panel per Fedorov et al; IC50 follow-up at Reaction Biology Corp
Procedure: as §1

MAP2K1 = target: T21, MAP2K1 (Homo sapiens, UniProt Q02750)
T21 construct: purchased in-house DSF (thermal shift) panel per Fedorov et al
Procedure: as §1

MAP2K4 = target: T22, MAP2K4 (Homo sapiens, UniProt P45985)
T22 construct: purchased in-house DSF (thermal shift) panel per Fedorov et al
Procedure: as §1

MAPK1 = target: T23, MAPK1 (Homo sapiens, UniProt P28482)
T23 construct: purchased in-house DSF (thermal shift) panel per Fedorov et al; IC50 follow-up at Reaction Biology Corp
Procedure: as §1

MAPK9 = target: T24, MAPK9 (Homo sapiens, UniProt P45984)
T24 construct: purchased in-house DSF (thermal shift) panel per Fedorov et al
Procedure: as §1

MAPKAPK2 = target: T25, MAPKAPK2 (Homo sapiens, UniProt P49137)
T25 construct: purchased in-house DSF (thermal shift) panel per Fedorov et al; IC50 follow-up at Reaction Biology Corp
Procedure: as §1

MELK = target: T26, MELK (Homo sapiens, UniProt Q14680)
T26 construct: purchased in-house DSF (thermal shift) panel per Fedorov et al
Procedure: as §1

MST3 = target: T27, MST3 (Homo sapiens, UniProt Q9Y6E0)
T27 construct: purchased in-house DSF (thermal shift) panel per Fedorov et al
Procedure: as §1

MST4 = target: T28, MST4 (Homo sapiens, UniProt Q9P289)
T28 construct: purchased in-house DSF (thermal shift) panel per Fedorov et al
Procedure: as §1

PHKG2 = target: T29, PHKG2 (Homo sapiens, UniProt P15735)
T29 construct: purchased in-house DSF (thermal shift) panel per Fedorov et al
Procedure: as §1

PIM3 = target: T30, PIM3 (Homo sapiens, UniProt Q86V86)
T30 construct: purchased in-house DSF (thermal shift) panel per Fedorov et al; IC50 follow-up at Reaction Biology Corp
Procedure: as §1

RIOK1 = target: T31, RIOK1 (Homo sapiens, UniProt Q9BRS2)
T31 construct: purchased in-house DSF (thermal shift) panel per Fedorov et al; IC50 follow-up at Reaction Biology Corp
Procedure: as §1

RIOK2 = target: T32, RIOK2 (Homo sapiens, UniProt Q9BVS4)
T32 construct: purchased in-house DSF (thermal shift) panel per Fedorov et al; IC50 follow-up at Reaction Biology Corp
Procedure: as §1

RPS6KA1 = target: T33, RPS6KA1 (Homo sapiens, UniProt Q15418)
T33 construct: purchased in-house DSF (thermal shift) panel per Fedorov et al
Procedure: as §1

SRPK1 = target: T34, SRPK1 (Homo sapiens, UniProt Q96SB4)
T34 construct: purchased in-house DSF (thermal shift) panel per Fedorov et al
Procedure: as §1

STK4 = target: T35, STK4 (Homo sapiens, UniProt Q13043)
T35 construct: purchased in-house DSF (thermal shift) panel per Fedorov et al; IC50 follow-up at Reaction Biology Corp
Procedure: as §1

TAF1 = target: T36, TAF1 (Homo sapiens, UniProt P21675)
T36 construct: purchased in-house DSF (thermal shift) panel per Fedorov et al
Procedure: as §1

TLK1 = target: T37, TLK1 (Homo sapiens, UniProt Q9UKI8)
T37 construct: purchased in-house DSF (thermal shift) panel per Fedorov et al; IC50 follow-up at Reaction Biology Corp
Procedure: as §1

TOPK = target: T38, TOPK (Homo sapiens, UniProt Q96KB5)
T38 construct: purchased in-house DSF (thermal shift) panel per Fedorov et al
Procedure: as §1

TTK1 = target: T39, TTK1 (Homo sapiens, UniProt P33981)
T39 construct: purchased in-house DSF (thermal shift) panel per Fedorov et al
Procedure: as §1

VRK1 = target: T40, VRK1 (Homo sapiens, UniProt Q99986)
T40 construct: purchased in-house DSF (thermal shift) panel per Fedorov et al; IC50 follow-up at Reaction Biology Corp
Procedure: as §1

T22 sequence (P45985 whole entry): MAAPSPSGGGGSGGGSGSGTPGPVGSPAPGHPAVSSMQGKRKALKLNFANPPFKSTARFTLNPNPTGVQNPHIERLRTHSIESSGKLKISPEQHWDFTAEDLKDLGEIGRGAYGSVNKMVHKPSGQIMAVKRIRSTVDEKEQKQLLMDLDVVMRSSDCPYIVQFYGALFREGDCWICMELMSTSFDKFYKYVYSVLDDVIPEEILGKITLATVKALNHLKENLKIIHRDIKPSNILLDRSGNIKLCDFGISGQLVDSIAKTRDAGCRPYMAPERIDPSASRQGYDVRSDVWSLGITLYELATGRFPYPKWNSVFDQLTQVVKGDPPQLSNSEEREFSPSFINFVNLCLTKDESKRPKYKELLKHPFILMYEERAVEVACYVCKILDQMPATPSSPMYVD
T18 sequence (P21802 22-821): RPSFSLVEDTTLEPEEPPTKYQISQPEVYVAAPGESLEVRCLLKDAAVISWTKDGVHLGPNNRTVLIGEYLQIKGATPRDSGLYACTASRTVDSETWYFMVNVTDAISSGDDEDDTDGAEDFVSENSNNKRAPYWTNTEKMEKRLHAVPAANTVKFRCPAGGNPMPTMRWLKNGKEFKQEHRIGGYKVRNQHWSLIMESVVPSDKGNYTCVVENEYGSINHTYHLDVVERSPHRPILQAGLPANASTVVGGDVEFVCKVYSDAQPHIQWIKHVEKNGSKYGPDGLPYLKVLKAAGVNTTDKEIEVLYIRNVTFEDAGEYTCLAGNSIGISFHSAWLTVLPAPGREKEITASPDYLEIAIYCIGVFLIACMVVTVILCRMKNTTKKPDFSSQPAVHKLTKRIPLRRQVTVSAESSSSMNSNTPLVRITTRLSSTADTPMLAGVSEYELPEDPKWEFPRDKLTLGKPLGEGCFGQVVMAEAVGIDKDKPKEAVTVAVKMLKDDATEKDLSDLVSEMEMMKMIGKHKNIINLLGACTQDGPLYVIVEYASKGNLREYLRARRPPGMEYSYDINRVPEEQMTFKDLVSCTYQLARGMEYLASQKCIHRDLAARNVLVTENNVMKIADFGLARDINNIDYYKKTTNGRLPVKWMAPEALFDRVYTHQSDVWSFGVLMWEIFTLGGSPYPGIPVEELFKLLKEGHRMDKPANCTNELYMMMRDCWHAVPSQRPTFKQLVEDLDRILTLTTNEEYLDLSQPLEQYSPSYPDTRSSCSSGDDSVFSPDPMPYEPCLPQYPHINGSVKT
T23 sequence (P28482 whole entry): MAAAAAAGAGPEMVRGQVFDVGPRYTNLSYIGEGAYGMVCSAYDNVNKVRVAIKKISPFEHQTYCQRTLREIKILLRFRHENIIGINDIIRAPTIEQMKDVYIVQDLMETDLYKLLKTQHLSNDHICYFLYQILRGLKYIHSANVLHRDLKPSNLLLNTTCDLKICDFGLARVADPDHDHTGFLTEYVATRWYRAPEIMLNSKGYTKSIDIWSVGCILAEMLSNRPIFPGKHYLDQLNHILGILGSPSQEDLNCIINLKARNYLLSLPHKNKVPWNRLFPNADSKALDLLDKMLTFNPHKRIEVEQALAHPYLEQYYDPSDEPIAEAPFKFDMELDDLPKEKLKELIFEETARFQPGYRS
T11 sequence (Q13557 whole entry): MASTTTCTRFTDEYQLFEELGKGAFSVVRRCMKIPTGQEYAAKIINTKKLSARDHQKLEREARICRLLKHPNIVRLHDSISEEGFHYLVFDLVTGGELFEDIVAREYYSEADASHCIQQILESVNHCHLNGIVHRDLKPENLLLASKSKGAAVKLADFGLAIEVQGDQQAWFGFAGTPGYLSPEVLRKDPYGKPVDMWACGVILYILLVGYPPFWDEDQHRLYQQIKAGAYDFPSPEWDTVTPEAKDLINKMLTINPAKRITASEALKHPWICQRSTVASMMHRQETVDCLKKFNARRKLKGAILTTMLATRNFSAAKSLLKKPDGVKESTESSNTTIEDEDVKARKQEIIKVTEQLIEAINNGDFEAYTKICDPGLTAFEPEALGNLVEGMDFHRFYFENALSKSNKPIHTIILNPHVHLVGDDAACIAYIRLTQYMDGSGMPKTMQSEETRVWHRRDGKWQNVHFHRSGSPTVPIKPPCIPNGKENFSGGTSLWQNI
T34 sequence (Q96SB4 whole entry): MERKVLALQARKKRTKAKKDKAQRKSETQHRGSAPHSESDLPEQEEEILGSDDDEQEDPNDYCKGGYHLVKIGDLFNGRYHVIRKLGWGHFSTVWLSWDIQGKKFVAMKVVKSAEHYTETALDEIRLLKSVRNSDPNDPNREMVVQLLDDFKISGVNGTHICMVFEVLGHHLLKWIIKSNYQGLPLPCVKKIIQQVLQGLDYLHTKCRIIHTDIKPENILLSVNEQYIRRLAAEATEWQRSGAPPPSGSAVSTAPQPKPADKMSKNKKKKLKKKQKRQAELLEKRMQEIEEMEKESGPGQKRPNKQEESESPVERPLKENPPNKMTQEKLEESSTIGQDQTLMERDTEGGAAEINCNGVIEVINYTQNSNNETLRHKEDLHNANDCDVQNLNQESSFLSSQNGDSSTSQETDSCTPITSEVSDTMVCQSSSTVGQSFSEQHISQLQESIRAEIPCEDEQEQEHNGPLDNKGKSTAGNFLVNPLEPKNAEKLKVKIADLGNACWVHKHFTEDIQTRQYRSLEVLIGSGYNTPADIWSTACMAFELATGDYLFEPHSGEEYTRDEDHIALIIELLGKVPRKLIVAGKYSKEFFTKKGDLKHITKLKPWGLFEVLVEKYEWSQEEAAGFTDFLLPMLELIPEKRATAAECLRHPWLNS
T33 sequence (Q15418 whole entry): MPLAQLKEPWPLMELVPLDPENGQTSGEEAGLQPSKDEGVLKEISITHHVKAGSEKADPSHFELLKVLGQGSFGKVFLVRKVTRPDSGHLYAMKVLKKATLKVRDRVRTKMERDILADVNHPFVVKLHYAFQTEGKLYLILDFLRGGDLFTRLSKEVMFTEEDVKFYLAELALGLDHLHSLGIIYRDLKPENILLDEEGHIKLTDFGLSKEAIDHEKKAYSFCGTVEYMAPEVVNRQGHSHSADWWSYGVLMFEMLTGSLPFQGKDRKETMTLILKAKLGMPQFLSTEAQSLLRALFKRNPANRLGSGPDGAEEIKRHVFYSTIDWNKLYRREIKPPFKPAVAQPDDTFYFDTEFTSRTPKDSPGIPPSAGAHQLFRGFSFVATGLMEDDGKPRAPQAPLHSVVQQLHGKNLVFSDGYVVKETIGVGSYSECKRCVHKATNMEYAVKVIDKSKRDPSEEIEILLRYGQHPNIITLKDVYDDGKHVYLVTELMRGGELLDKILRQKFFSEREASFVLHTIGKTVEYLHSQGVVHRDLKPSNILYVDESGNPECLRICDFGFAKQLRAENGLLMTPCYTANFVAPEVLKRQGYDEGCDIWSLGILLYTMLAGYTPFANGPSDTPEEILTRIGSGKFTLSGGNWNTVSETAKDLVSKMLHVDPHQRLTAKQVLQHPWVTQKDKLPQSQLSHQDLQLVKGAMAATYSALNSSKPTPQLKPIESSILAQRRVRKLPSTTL
T25 sequence (P49137 whole entry): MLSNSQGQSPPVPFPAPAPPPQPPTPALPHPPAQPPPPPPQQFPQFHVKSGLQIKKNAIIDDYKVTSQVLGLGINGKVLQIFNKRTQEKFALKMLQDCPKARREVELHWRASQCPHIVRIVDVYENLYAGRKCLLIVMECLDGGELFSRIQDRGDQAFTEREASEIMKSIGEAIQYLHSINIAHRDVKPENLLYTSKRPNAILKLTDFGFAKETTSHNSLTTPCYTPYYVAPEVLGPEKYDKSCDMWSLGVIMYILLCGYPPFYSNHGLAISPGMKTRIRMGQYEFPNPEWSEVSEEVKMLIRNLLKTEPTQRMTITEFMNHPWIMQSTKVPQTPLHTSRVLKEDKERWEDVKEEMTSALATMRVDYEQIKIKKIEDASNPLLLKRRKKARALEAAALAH
T40 sequence (Q99986 whole entry): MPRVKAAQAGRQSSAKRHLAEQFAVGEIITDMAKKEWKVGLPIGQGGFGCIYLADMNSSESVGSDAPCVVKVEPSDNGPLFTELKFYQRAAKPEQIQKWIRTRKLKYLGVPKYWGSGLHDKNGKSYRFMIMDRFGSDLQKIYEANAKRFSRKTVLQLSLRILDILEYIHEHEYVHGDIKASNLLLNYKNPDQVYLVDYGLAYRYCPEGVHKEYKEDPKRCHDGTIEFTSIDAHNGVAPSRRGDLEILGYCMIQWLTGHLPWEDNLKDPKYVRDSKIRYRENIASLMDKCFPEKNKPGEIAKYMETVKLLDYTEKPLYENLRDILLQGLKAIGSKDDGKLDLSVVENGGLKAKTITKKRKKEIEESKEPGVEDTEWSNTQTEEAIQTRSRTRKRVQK
T21 sequence (Q02750 whole entry): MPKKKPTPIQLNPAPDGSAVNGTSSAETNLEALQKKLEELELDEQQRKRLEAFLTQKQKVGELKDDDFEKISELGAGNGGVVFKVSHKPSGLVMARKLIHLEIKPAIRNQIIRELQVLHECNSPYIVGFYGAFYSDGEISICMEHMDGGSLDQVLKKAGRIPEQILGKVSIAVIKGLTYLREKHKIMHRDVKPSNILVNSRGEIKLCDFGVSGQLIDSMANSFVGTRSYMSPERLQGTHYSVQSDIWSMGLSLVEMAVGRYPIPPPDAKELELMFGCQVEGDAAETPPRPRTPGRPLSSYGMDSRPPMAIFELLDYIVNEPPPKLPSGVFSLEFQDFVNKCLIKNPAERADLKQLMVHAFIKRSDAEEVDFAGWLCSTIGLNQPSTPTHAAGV

Work on `CCc1cnc(Nc2nc(Cl)ccc2[N+](=O)[O-])nc1N1CCN(Cc2nc3cc(C(F)(F)F)ccc3[nH]2)CC1` [Compound 2] yielded a ΔTm at 10 µM (AAK1) of -0.2 °C, a ΔTm at 10 µM (ABL1) of 0.6 °C and a ΔTm at 10 µM (AKT3) of 0.2 °C. It also gave a ΔTm at 10 µM (BMPR2) of -0.4 °C, a ΔTm at 10 µM (BMX) of -0.5 °C and a ΔTm at 10 µM (BRD4) of -1 °C. The ΔTm at 10 µM (BRPF1) was 0.9 °C, the ΔTm at 10 µM (CAMK1D) was 1.1 °C and the ΔTm at 10 µM (CAMK1G) was -0.6 °C. The ΔTm at 10 µM (CAMK2B) was -2.3 °C, the ΔTm at 10 µM (CAMK2D) was -0.1 °C and the ΔTm at 10 µM (CASK) was -0.9 °C. The ΔTm at 10 µM (CDKL1) was -0.4 °C, the ΔTm at 10 µM (CSNK1D) was 0.2 °C and the ΔTm at 10 µM (DMPK1) was 0.2 °C. The ΔTm at 10 µM (DYRK2) was 0.1 °C, the ΔTm at 10 µM (EPHA2) was 0.3 °C and the ΔTm at 10 µM (FGFR2) was 0.3 °C. The ΔTm at 10 µM (FLT1) was 0.1 °C, the ΔTm at 10 µM (GSK3B) was 0.4 °C and the ΔTm at 10 µM (MAP2K1) was -0.3 °C. For the same compound, the ΔTm (MAP2K4) was greater than 2 °C, the ΔTm at 10 µM (MAP2K4) was 3 °C and the ΔTm at 10 µM (MAPK1) was -0.2 °C. For the same compound, the ΔTm at 10 µM (MAPK9) was 0 °C, the ΔTm at 10 µM (MAPKAPK2) was -0.3 °C and the ΔTm at 10 µM (MELK) was 0.4 °C. It also gave a ΔTm at 10 µM (MST3) of -0.3 °C, a ΔTm at 10 µM (MST4) of -1.1 °C and a ΔTm at 10 µM (PHKG2) of 0.2 °C. For the same compound, the ΔTm at 10 µM (PIM3) was -0.6 °C, the ΔTm at 10 µM (RIOK1) was 0.2 °C and the ΔTm at 10 µM (RIOK2) was -0.8 °C. For the same compound, the ΔTm at 10 µM (RPS6KA1) was 0.3 °C, the ΔTm at 10 µM (SRPK1) was 0 °C and the ΔTm at 10 µM (STK4) was -0.5 °C. For the same compound, the ΔTm at 10 µM (TAF1) was 0.1 °C, the ΔTm at 10 µM (TLK1) was 0 °C and the ΔTm at 10 µM (TOPK) was -0.5 °C. For the same compound, the ΔTm at 10 µM (TTK1) was 1.5 °C and the ΔTm at 10 µM (VRK1) was -0.4 °C.
